# Measured values reported in patent publication US8993559B2, “Use of ibogamine congeners for treating obesity” (Albany Medical College, priority 2008, dated 2015).
# “Also recorded” adds a separate entry of the source.
# Experiments:
# Sprague-Dawley rats = test: Palatable liquid consumption, two-bottle paradigm (19-h sessions); format: in vivo, rat; conditions: for water consumption: water/water control
# Experimental: Naïve female Sprague-Dawley rats (230-270 g; Taconic, Germantown, N.Y.) were housed individually and maintained on a normal 12 hr light cycle (light on/off at 7 a.m./7 p.m.) in the colony room. For all experiments, food (normal chow) and water were provided ad libitum. The experiments were conducted in accordance with the “Guide for the Care and Use of Laboratory Animals” (National Academy of Sciences, 1996).
# On the first day of the experiment, the regular cage tops were replaced with custom-made cage tops containing metal holders for two 100-ml graduated glass bottles (Lab Products Inc., Seaford, Del.); the bottles were placed approximately 2″ apart. Different groups of rats were allowed 19-h (3.30 p.m.-10.30 a.m.) unlimited access to water and 5% sucrose, water and 0.1% saccharine, water and 0.6% saline, or water and water. The concentrations were chosen in accordance with previous reports using similar two-bottle drinking paradigms. See Dess, N. K., Physiol Behav., 69: 247-257 (2000) and Warwick, Z. S. et al., Physiol Behav, 60: 711-715 (1996), which are hereby incorporated by reference in their entirety. The animals were maintained on a normal chow during these sessions. The bottles with palatable fluids were removed at the end of the 19-h sessions, but water and chow remained always available. The consumption of palatable fluids and water during the sessions were recorded on a daily basis for four consecutive sessions: two initial baseline sessions, one treatment session and one port-treatment session. The baseline consumption levels of fluids were established during the initial two sessions; immediately before the third session, animals were injected with 18-MC (10, 20, or 40 mg/kg i.p.) or vehicle. To account for possible side preferences of rats, the bottle sides were switched daily; animals expressing strong side preferences during the baseline sessions were excluded from further analysis. Each animal was used for four weeks, receiving three different dosages of 18-MC and vehicle in random order.
# The average levels of fluid consumption (ml) during the first two sessions (baseline), as well as consumption during the post-injection session and the recovery session, were compared by two-way ANOVA using treatment and session as main factors; this analysis was followed by one-way ANOVAs for each treatment group and post-hoc tests when appropriate.
# [1] = Weight gain paradigm: sucrose-drinking animals; format: in vivo, rat
# Experimental: FIG. 11 is a graph showing effects of repeated administration of 18-MC (20 mg/kg i.p. for 14 days) on body fat depots (mean±SEM). *=p<0.05. On the seventh day after the last injection of 18-MC, animals were euthanized in CO2 chambers and decapitated. Necropsies were performed to remove periovarian, perirenal and inguinal fat pads.
# Animals were maintained on a regular chow and water for the duration of experiment (three weeks). On the first day of experiment, animals received additional bottle containing 30% sucrose solution which remained available for the following three weeks; the bottle sides were switched daily. The body weights of rats were recorded daily for the following two weeks immediately prior administration of 18-MC (20 mg/kg, i.p.) or vehicle. After the last 18-MC injection, the weights were monitored for the additional week.
# (§1) For the weight gain experiment, the data for all four treatment groups from days 1-21 were analyzed using two-way ANOVA, with treatment and time as main factors. Furthermore, the data for the first two weeks and the last week for water-vehicle, water-18-MC and sucrose 18-MC were analyzed separately using two-ANOVA, with treatment and time as main factors. Post-hoc comparison tests (Fisher LSD tests) were conducted when appropriate.
# [2] = Weight gain paradigm: water-drinking animals; format: in vivo, rat; conditions: 18-MC 20 mg/kg i.p. daily for two weeks
# Experimental: Animals were allowed unlimited access to regular chow and water and were injected daily with 18-MC (20 mg/kg, i.p.) or vehicle for two weeks. Body weights were recorded immediately prior to injections and were also recorded for an additional week upon cessation of 18-MC treatment.
# as §1
# [3] = Weight gain of rats on high fat or low fat diet; format: in vivo, rat
# Experimental: FIG. 12 is a graph showing effects of 18-MC (20 mg/kg i.p.) on weight gain of rats. Each data point represents daily weight (g, ±S.E.M.) of rats having access to high fat (HF) or low fat (LF) diet and water, and treated with 18-MC or vehicle. The black bar indicates the duration of treatment with 18-MC: =<0.05, 18-MC vs vehicle.
# The development of obesity in rats maintained on a high fat diet is perhaps the commonly used animal model of diet-induced obesity.
# rats [4] = test: Drug self-administration and water-reinforced responding in rats (earlier studies); format: in vivo, rat
# Experimental: Other work has extended the “anti-addictive” effect of 18-MC to oral intake of ethanol. In all cases, these effects last for at least 24 hours. […] Unlike 18-MC, ibogaine and many other iboga alkaloid congeners (approximately 30 tested) decrease responding for water as well as for drugs. And it was precisely this unique specificity that led to development and study of 18-MC.
# rats [5] = conditions: systemic pretreatment; cited from earlier work
# α3β4 nicotinic receptors = α3β4 nicotinic receptors (Homo sapiens, UniProt P30926+P32297); conditions: cited from earlier work
# α3β4 nicotinic receptors, sequence (P32297 32-505): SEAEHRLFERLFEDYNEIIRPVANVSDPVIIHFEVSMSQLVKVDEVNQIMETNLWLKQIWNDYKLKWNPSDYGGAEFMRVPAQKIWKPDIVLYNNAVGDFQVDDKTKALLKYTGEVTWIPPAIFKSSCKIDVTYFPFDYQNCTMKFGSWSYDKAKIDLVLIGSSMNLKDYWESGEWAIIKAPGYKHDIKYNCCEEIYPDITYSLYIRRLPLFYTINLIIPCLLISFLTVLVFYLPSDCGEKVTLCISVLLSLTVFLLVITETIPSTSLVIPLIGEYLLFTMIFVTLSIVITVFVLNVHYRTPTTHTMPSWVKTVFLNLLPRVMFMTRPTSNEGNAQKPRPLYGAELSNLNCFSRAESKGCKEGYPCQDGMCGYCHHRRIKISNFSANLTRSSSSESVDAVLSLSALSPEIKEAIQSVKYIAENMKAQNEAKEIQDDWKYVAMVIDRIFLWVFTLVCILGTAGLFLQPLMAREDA
# α3β4 nicotinic receptors, sequence (P30926 22-498): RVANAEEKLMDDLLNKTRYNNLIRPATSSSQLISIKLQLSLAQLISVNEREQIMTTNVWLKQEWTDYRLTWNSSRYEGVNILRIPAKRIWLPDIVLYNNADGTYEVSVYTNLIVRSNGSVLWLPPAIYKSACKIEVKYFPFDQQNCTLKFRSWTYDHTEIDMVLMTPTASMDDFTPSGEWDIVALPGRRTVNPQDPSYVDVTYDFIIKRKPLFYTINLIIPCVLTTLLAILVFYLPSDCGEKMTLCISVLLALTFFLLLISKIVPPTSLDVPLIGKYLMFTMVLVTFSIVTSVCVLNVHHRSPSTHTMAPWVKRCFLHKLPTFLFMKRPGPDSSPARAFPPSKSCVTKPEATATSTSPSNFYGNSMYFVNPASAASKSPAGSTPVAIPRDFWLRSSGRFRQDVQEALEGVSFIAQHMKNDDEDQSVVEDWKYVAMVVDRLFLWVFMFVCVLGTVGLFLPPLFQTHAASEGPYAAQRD
# [6] = saccharin/water experiment, 10, 20 and 40 mg/kg i.p.
# [7] = sucrose/water experiment, 10, 20 and 40 mg/kg i.p.
compound,measurement,setting,value
"COCC[C@H]1CC2CN3CCc4c([nH]c5ccccc45)[C@](C(=O)OC)(C2)[C@H]13 [18-MC, 18-methoxycoronaridine]","saccharin intake, recovery session","Sprague-Dawley rats; 0.1% saccharin/water, 10 mg/kg i.p.",reduced intake
same,"saccharin intake, post-injection session vs baseline","Sprague-Dawley rats; 0.1% saccharin/water, 10, 20 and 40 mg/kg i.p.",significantly less
same,saline consumption vs baseline,"Sprague-Dawley rats; 0.6% saline/water, 10 mg/kg i.p.",remained unchanged
same,saline consumption vs baseline,"Sprague-Dawley rats; 0.6% saline/water, 20 and 40 mg/kg i.p., 19 h following injection",reduced
same,"effect on saline consumption, recovery session","Sprague-Dawley rats; 0.6% saline/water, highest dose (40 mg/kg i.p.)",also significant
same,"sucrose intake, recovery session","Sprague-Dawley rats; 5% sucrose/water, 10, 20 and 40 mg/kg i.p.",returned to baseline
same,"sucrose consumption, post-injection session vs baseline","Sprague-Dawley rats; 5% sucrose/water, 10, 20 and 40 mg/kg i.p., 19-h session",significantly reduced
same,selectivity for reducing consumption of sucrose and saccharin relative to water,Sprague-Dawley rats; control water/water experiment vs two-bottle experiments,at least four-fold
same,"ceiling effect dose, consumption of sucrose and saccharin",Sprague-Dawley rats; dose range 10-40 mg/kg i.p.,10 mg/kg
same,"ceiling effect dose, saline consumption",Sprague-Dawley rats; dose range 10-40 mg/kg i.p.,20 mg/kg
same,"effect on total fluid consumption, recovery session","Sprague-Dawley rats; saccharin/water experiment, 10 mg/kg i.p.",remained significant
same,"total fluid consumption (FIG. 3C), 19 h after injection",Sprague-Dawley rats; [6],reduced
same,water consumption across sessions,Sprague-Dawley rats; [6],not altered
same,total fluid consumption,"Sprague-Dawley rats; saline/water experiment, 10 mg/kg i.p.",remained unchanged
same,water consumption across sessions,"Sprague-Dawley rats; saline/water experiment, 10, 20 and 40 mg/kg i.p.",not different across sessions
same,total fluid consumption,"Sprague-Dawley rats; saline/water experiment, 20 and 40 mg/kg i.p.",significantly reduced
same,"effect on total fluid consumption, recovery session","Sprague-Dawley rats; saline/water experiment, highest dose (40 mg/kg i.p.)",also significant
same,"total fluid consumption, post-injection session vs baseline",Sprague-Dawley rats; [7],reduced
same,water consumption across sessions,Sprague-Dawley rats; [7],remained stable
same,water consumption,Sprague-Dawley rats; 40 mg/kg i.p.,significantly reduced
same,water consumption,Sprague-Dawley rats; 10 and 20 mg/kg i.p.,remained unchanged
same,weights of fat depots,"[1]; 18-MC 20 mg/kg i.p. for 14 days, periovarian, perirenal and inguinal fat pads",decreased
same,recovery of the weight gain after cessation of treatment,[1]; 18-MC-treated sucrose-drinking group,did not occur for another week
same,sucrose-induced (excessive) weight gain,"[1]; 30% sucrose, 18-MC 20 mg/kg i.p. daily for two weeks",attenuated; also recorded: totally prevented
same,body weights vs vehicle-treated sucrose-drinking animals,"[1]; 30% sucrose, 18-MC (40 mg/kg i.p.) as printed, all time points except the first",significantly lower
same,body weight of rats maintained on water and chow,[2],no effect
same,excessive weight gain attributable to the high fat diet,"[3]; 18-MC 20 mg/kg i.p. daily for two weeks, 45 kcal % fat",totally prevented
same,decrease of weights of fat depots in HF rats,"[3]; 18-MC 20 mg/kg i.p. for two weeks, high fat diet",about 35%
same,decrease of weights of fat depots in LF rats,"[3]; 18-MC 20 mg/kg i.p. for two weeks, low fat diet (10 kcal % fat)",not in LF rats
same,decrease of drug self-administration,"rats [4]; 20 mg/kg, i.p., depending on the drug",40-80%
same,motor effects,rats [4]; at times when self-administration is decreased,no motor effects
same,duration of effects on drug self-administration,"rats [4]; rat, in vivo",at least 24 hours
same,effect on oral intake of ethanol,"rats [4]; rat, in vivo, po",anti-addictive
same,"cocaine, methamphetamine and nicotine self-administration",rats [4]; rats,decreases
same,morphine self-administration,rats [4]; rats,dose-dependently decreases
same,responding for water (non-drug reinforcer),rats [4]; same doses that decrease drug self-administration,do not affect
same,intravenous self-administration of morphine and other drugs,rats [5],reduce
same,action at α3β4 nicotinic receptors,α3β4 nicotinic receptors,selective antagonist; also recorded: noncompetitive antagonist
